Measurements: ChEMBL document CHEMBL3779888, “Discovery of novel 2-phenyl-imidazo[1,2-a]pyridine analogues targeting tubulin polymerization as antiproliferative agents” (Eur J Med Chem, 2016)

What was measured:
HeLa = assay: Cytotoxicity against human HeLa cells after 3 days by SRB assay; assay type: functional, cell-based; settings: 72 h
Tubulin = Tubulin (Sus scrofa, UniProt P02554+P02550); assay: Inhibition of porcine tubulin polymerization by UV-Vis microplate reader analysis; assay type: protein assay
Tubulin (Sus scrofa) = Tubulin (Sus scrofa) (UniProt P02554+P02550); assay: Displacement of [3H]-colchicine from porcine tubulin at 20 uM preincubated for 1 hr followed by radioligand addition measured after 30 mins by DE81 filter-based scintillation spectrometric assay; assay type: protein assay
Sequence of Tubulin (Sus scrofa) (P02550 whole entry, looked up): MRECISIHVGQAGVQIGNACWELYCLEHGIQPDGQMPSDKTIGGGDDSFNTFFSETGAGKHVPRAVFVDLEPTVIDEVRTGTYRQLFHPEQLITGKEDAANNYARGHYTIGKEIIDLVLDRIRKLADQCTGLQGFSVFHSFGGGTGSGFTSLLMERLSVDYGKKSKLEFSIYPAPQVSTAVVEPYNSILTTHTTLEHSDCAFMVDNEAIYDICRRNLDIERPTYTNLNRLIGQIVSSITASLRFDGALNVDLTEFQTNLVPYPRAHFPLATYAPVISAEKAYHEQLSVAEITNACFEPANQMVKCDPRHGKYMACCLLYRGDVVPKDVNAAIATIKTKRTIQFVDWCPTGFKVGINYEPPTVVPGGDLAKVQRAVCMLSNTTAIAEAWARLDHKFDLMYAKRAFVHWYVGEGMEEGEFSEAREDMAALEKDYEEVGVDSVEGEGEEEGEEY
Sequence of Tubulin (Sus scrofa) (P02554 whole entry, looked up): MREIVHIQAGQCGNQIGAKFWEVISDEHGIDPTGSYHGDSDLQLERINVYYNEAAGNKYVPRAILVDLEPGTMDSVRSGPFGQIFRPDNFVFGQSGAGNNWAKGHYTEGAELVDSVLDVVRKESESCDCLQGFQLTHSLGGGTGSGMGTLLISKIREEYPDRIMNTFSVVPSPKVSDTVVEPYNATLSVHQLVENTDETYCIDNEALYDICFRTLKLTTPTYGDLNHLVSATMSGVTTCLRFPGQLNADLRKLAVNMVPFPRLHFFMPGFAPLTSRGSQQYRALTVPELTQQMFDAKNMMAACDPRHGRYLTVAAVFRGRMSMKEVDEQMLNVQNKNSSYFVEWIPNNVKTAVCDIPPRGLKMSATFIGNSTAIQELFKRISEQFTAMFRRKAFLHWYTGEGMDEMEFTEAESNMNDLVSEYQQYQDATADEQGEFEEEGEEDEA

Structure (SMILES)	IC50 (HeLa)	IC50 (Tubulin)	inhibition (Tubulin (Sus scrofa))
COc1ccc(CNc2c(-c3ccccc3O)nc3ccccn23)cc1	0.015 µM	4.35 µM	66%
COc1ccc(CNc2c(-c3ccccc3NC(C)=O)nc3ccccn23)cc1	> 10 µM	–	–
COc1ccc(CNc2c(-c3cc([N+](=O)[O-])ccc3O)nc3ccccn23)cc1	0.21 µM	–	–
COc1ccc(CNc2c(-c3ccccc3O)nc3ccc(Br)cn23)cc1	0.81 µM	–	–
COc1ccc(CNc2c(-c3c(O)cc(OC)cc3OC)nc3ccccn23)cc1	> 10 µM	–	–
COc1ccc(Nc2c(-c3ccccc3O)nc3ccccn23)cc1	> 10 µM	–	–
COc1cc2c(c(OC)c1OC)-c1ccc(OC)c(=O)cc1[C@@H](NC(C)=O)CC2 [COLCHICINE]	0.037 µM	–	–
COc1ccc(CNc2c(-c3ccccc3O)nc3ccc(F)cn23)cc1	0.013 µM	3.41 µM	72.2%
COc1ccc(CNc2c(-c3ccccc3NS(C)(=O)=O)nc3ccccn23)cc1	> 10 µM	–	–
COc1ccc(CCNc2c(-c3ccccc3O)nc3ccccn23)cc1	8.22 µM	–	–
COc1ccc(CNc2c(-c3ccccc3O)nc3cnccn23)cc1	0.037 µM	7.16 µM	41.1%
COc1ccc(CNc2c(-c3cc(Cl)cc(Cl)c3O)nc3ccccn23)cc1	4.16 µM	–	–
COc1ccc(CNc2c(-c3ccccc3OC)nc3ccccn23)cc1	0.23 µM	–	–
COc1ccc(CNc2c(-c3ccccc3O)nc3cccc(F)n23)cc1	0.046 µM	–	–
